Experiments:
[1] = biological target: T1, cyclooxygenase-2 (COX-2) (Homo sapiens, UniProt P35354); experiment: Whole cell cyclooxygenase assay, COX-2 (PGE2 synthesis in response to arachidonic acid, radioimmunoassay), human osteosarcoma 143 cells; assay type: cell-based; conditions: read-out: Whole Cells COX-2 % inhib.; for inhibition at 0.16 µM: 160 nM; for inhibition at 0.02 µM: 20 nM; for inhibition at 0.04 µM: 40 nM; for inhibition at 0.01 µM: 10 nM; for inhibition at 0.1 µM: 100 nM
T1 construct: human osteosarcoma 143 cells (which specifically express cyclooxygenase-2); endogenous in cells; host or cells: human osteosarcoma 143 cells (whole cells, and microsomes prepared from them)
T1 sequence (P35354 18-604): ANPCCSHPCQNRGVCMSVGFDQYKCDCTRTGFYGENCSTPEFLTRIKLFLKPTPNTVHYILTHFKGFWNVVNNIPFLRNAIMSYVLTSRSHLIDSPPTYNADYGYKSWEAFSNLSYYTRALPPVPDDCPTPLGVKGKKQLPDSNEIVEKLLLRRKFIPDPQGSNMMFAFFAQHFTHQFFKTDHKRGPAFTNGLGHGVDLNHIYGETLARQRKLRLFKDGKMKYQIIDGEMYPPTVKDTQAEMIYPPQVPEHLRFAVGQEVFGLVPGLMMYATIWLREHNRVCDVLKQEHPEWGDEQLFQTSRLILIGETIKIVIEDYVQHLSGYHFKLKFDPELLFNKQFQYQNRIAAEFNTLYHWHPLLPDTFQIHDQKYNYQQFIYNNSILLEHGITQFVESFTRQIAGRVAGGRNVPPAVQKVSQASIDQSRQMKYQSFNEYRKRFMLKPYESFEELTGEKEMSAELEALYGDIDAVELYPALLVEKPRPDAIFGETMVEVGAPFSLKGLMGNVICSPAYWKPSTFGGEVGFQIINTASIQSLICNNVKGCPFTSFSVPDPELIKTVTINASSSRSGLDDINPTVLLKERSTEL
Procedure: (§1) Compounds were tested as inhibitors of cyclooxygenase activity in whole cell and microsomal cyclooxygenase assays. Both of these assays measured prostaglandin E2 (PGE2) synthesis in response to arachidonic acid, using a radioimmunoassay. Cells used for whole cell assays, and from which microsomes were prepared for microsomal assays, were human osteosarcoma 143 cells (which specifically express cyclooxygenase-2) and human U-937 cells (which specifically express cyclooxygenase-1). In these assays, 100% activity is defined as the difference between prostaglandin E2 synthesis in the absence and presence of arachidonate addition.

[2] = biological target: T2, cyclooxygenase-1 (COX-1) (Homo sapiens, UniProt P23219); experiment: Microsomal cyclooxygenase assay, COX-1 (PGE2 synthesis, microsomes of human U-937 cells); assay type: biochemical; conditions: for inhibition at 0.1 µM: 100 nM
T2 construct: human U-937 cells (which specifically express cyclooxygenase-1); endogenous in cells; host or cells: human U-937 cells (whole cells, and microsomes prepared from them)
Procedure: as §1

[3] = biological target: T1, cyclooxygenase-2 (COX-2); experiment: Microsomal cyclooxygenase assay, COX-2 (PGE2 synthesis, microsomes of human osteosarcoma 143 cells); assay type: biochemical; conditions: for inhibition at 0.1 µM: 100 nM
Procedure: as §1

[4] = biological target: T2, cyclooxygenase-1 (COX-1); experiment: Whole cell cyclooxygenase assay, COX-1 (PGE2 synthesis in response to arachidonic acid, radioimmunoassay), human U-937 cells; assay type: cell-based; conditions: 100 nM, read-out: Whole Cells COX-1 % inhib.
Procedure: as §1

[5] = read-out: Microsomes COX-1 % inhib.
[6] = read-out: Microsomes COX-2 % inhib.

T2 sequence (P23219 24-599): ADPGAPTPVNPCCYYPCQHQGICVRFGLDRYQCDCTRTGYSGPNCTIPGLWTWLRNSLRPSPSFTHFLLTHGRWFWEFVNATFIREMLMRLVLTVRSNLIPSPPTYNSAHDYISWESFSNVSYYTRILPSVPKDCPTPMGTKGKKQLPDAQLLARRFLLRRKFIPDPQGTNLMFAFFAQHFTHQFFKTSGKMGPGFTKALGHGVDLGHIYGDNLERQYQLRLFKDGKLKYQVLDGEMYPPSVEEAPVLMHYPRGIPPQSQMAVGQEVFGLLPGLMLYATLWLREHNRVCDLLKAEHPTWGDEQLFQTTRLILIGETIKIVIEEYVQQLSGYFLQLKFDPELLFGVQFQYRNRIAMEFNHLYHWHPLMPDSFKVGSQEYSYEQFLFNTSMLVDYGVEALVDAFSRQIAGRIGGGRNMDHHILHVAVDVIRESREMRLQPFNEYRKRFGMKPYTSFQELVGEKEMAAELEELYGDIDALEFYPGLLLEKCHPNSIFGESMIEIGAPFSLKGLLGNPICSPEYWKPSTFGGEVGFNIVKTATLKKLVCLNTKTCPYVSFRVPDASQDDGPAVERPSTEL

Molecule CS(=O)(=O)c1ccc(C2=C(c3ccc(F)cc3Br)C(=O)OC2)cc1 [Example 25, 3-(2-Bromo-4-fluorophenyl)-4-(4-(methylsulfonyl)phenyl)-2-(5H)-furanone] has an inhibition at 0.16 µM [1] of 40%.
CS(=O)(=O)c1ccc(C2=C(c3ccc(C(F)(F)F)cc3)C(=O)OC2)cc1 [Example 35, 3-(4-Trifluoromethylphenyl)-4-(4-(methylsulfonyl)phenyl)-2-(5H)-furanone] showed an inhibition at 0.02 µM [1] of 32%, an inhibition at 0.04 µM [1] of 57% and an inhibition at 0.16 µM [1] of 83%.
Molecule CS(=O)(=O)c1ccc(C2=C(c3ccc(Cl)cc3F)C(=O)OC2)cc1 [Example 27, 3-(4-Chloro-2-fluorophenyl)-4-(4-(methylsulfonyl)phenyl)-2-(5H)-furanone] has an inhibition at 0.02 µM [1] of 38% and an inhibition at 0.16 µM [1] of 97%.
CS(=O)(=O)c1ccc(C2=C(c3ccc(Br)cc3)C(=O)OC2)cc1 [Example 20, 3-(4-Bromophenyl)-4-(4-(methylsulfonyl)phenyl)-2-(5H)-furanone] gave an inhibition at 0.01 µM [1] of 70% and an inhibition at 0.04 µM [1] of 91%.
In the case of NS(=O)(=O)c1ccc(-c2sccc2-c2ccc(F)cc2)cc1 [Example 13, 2-((4-aminosulfonyl)phenyl)-3-(4-fluorophenyl)thiophene], the “Microsomes COX-1 % inhib.” value ([2]; 10 nM, 0.01 µM) was 10%, the inhibition at 0.01 µM ([2]; 10 nM, read-out: Microsomes COX-1 % inhib.) was 7% and the inhibition at 0.01 µM [1] was 41%. For the same molecule, the inhibition at 0.1 µM [1] was 84%, the “Microsomes COX-2 % inhib.” value ([3]; 10 nM, 0.01 µM) was 58% and the inhibition at 0.01 µM ([3]; 10 nM, read-out: Microsomes COX-2 % inhib.) was 52%.
CS(=O)(=O)c1ccc(C2=C(c3c(F)cccc3F)C(=O)OC2)cc1 [Example 17, 3-(2,6-Difluorophenyl)-4-(4-(methylsulfonyl)phenyl)-2-(5H)-furanone] gave an inhibition at 0.04 µM [1] of 41% and an inhibition at 0.16 µM [1] of 77%.
Molecule CS(=O)(=O)c1ccc(C2=C(c3ccc(Cl)c(F)c3)C(=O)OC2)cc1 [Example 46, 3-(4-Chloro-3-fluorophenyl)-4-(4-(methylsulfonyl)phenyl)-2-(5H)-furanone] has an inhibition at 0.01 µM [1] of 76%, an inhibition at 0.04 µM [1] of 94% and an inhibition at 0.16 µM [1] of 97%.
For NS(=O)(=O)c1ccc(C2=C(c3ccc(Cl)c(Cl)c3)C(=O)OC2)cc1 [Example 51, 3-(3 4-Dichlorophenyl)-4-(4-(aminosulfonyl)phenyl)-2-(2H)-furanone], the inhibition at 0.005 µM ([1]; 5 nM) was 49%, the inhibition at 0.02 µM [1] was 95% and the inhibition at 0.04 µM [1] was 102%.
CS(=O)(=O)c1ccc(C2=C(c3ccc4cccnc4c3)C(=O)OC2)cc1 [Example 50, 3-(7-Quinolinyl)-4-(4-(methylsulfonyl)phenyl)-2-(5H)-furanone] showed an inhibition at 0.08 µM ([1]; 80 nM) of 42%.
With CS(=O)(=O)c1ccc(-c2cocc2-c2ccc(F)cc2)cc1 [Example 11, 3-(4-Fluorophenyl)-4-(4-(methylsulfonyl)phenyl)furan] the inhibition at 0.1 µM [2, 5] was 7%, the inhibition at 0.1 µM [1] was 39% and the inhibition at 0.1 µM [3, 6] was 46%.
With CC(C)(O)c1cc(-c2ccc(S(N)(=O)=O)cc2)c(-c2ccc(F)cc2)s1 [Example 1] the inhibition at 0.1 µM [2, 5] was 8%, the inhibition at 0.1 µM [1] was 96% and the inhibition at 0.1 µM [3, 6] was 53%. For the same molecule, the inhibition at 0.1 µM [4] was 12%.

From patent US5767291A, “Phenyl heterocycles as cox-2 inhibitors” (Merck Frosst Canada, Inc., priority 1996, dated 1998)
